According to ChEMBL document CHEMBL4229536, “In vitro and in vivo pharmacokinetic and pharmacodynamic study of MBRI-001, a deuterium-substituted plinabulin derivative as a potent anti-cancer agent” (Bioorg Med Chem, 2018):

Key:
[1] = Drug excretion in Wistar rat urine at 4 mg/kg, iv measured after 24 hrs; assay type: ADME, organism-based; conditions: read-out: Drug excretion
[2] = Drug excretion in Wistar rat feces at 4 mg/kg, iv measured after 108 hrs; assay type: ADME, organism-based; conditions: faeces, read-out: Drug excretion
NCI-H460 [3] = experiment: Antitumor activity against human NCI-H460 cells xenografted in nude mouse assessed as inhibition of tumor volume at 6 mg/kg, iv administered once in every 2 days for 14 consecutive days relative to control; assay type: functional; conditions: 48 h
[4] = Clearance in Wistar rat at 4 mg/kg, iv; assay type: ADME, organism-based; conditions: in vivo
[5] = Half life in Wistar rat at 8 mg/kg, iv; assay type: ADME, organism-based; conditions: in vivo
[6] = MRTlast in Wistar rat at 8 mg/kg, iv; assay type: ADME, organism-based; conditions: in vivo
[7] = Drug excretion in Wistar rat urine at 4 mg/kg, iv measured after 8 hrs; assay type: ADME, organism-based; conditions: read-out: Drug excretion
[8] = Drug uptake in Wistar rat large intestine at 6 mg/kg, iv measured after 4 hrs; assay type: ADME, organism-based; conditions: in vivo
[9] = Drug excretion in Wistar rat urine at 4 mg/kg, iv measured after 108 hrs; assay type: ADME, organism-based; conditions: read-out: Drug excretion
[10] = MRTlast in Wistar rat at 4 mg/kg, iv; assay type: ADME, organism-based; conditions: in vivo
[11] = Drug uptake in Wistar rat heart at 6 mg/kg, iv measured after 4 hrs; assay type: ADME, organism-based; conditions: in vivo
[12] = Drug excretion in Wistar rat urine at 4 mg/kg, iv measured after 12 hrs; assay type: ADME, organism-based; conditions: read-out: Drug excretion
[13] = Protein binding in Beagle dog plasma at 2 uM after 4 hrs by LC-MS/MS analysis; assay type: ADME, cell-free, Canis lupus familiaris; conditions: read-out: PPB (converted)
[14] = Stability in rat liver microsomes at 50 uM after 150 mins in presence of NADPH by LC-MS/MS analysis; assay type: ADME, microsome; conditions: read-out: Stability
[15] = Stability in rat liver microsomes at 50 uM after 10 mins in presence of NADPH by LC-MS/MS analysis; assay type: ADME, microsome; conditions: liver microsomes, read-out: Stability
[16] = Drug uptake in Wistar rat brain at 6 mg/kg, iv measured after 0.5 hrs; assay type: ADME, organism-based; conditions: in vivo
[17] = Stability in rat liver microsomes at 50 uM after 60 mins in presence of NADPH by LC-MS/MS analysis; assay type: ADME, microsome; conditions: read-out: Stability
[18] = Drug uptake in Wistar rat pancreas at 6 mg/kg, iv measured after 0.5 hrs; assay type: ADME, organism-based; conditions: in vivo
[19] = Stability in rat plasma at 1 uM after 90 mins by LC-MS/MS analysis; assay type: ADME, cell-free; conditions: read-out: Stability
Mus musculus = experiment: Toxicity in Balb/c mouse assessed as mortality at 20 mg/kg, iv administered three times in a day every 2 days for 15 consecutive days; assay type: organism-based; conditions: in vivo, 48 h
NCI-H460 [20] = experiment: Antitumor activity against human NCI-H460 cells xenografted in nude mouse assessed as inhibition of tumor weight at 6 mg/kg, iv administered once in every 2 days for 14 consecutive days cotreated with 50 mg/kg gefitinib once daily for 14 consecutive days relative to control; assay type: functional
[21] = Half life in Wistar rat at 4 mg/kg, iv; assay type: ADME, organism-based; conditions: in vivo
[22] = Drug excretion in Wistar rat feces at 4 mg/kg, iv measured after 8 hrs; assay type: ADME, organism-based; conditions: faeces, read-out: Drug excretion
[23] = Drug uptake in Wistar rat large intestine at 6 mg/kg, iv measured after 1 hr; assay type: ADME, organism-based; conditions: in vivo
[24] = Stability in rat liver microsomes at 50 uM after 90 mins in presence of NADPH by LC-MS/MS analysis; assay type: ADME, microsome; conditions: read-out: Stability
[25] = Drug excretion in Wistar rat feces at 4 mg/kg, iv measured after 2 hrs; assay type: ADME, organism-based; conditions: faeces, read-out: Drug excretion
[26] = Stability in rat liver microsomes at 50 uM after 5 mins in presence of NADPH by LC-MS/MS analysis; assay type: ADME, microsome; conditions: liver microsomes, read-out: Stability
Cytochrome P450 2C9 = Cytochrome P450 2C9 (Homo sapiens, UniProt P11712); experiment: Inhibition of CYP2C9 in human liver microsomes preincubated for 10 mins followed by NADPH addition measured after 10 mins by LC-MS/MS analysis; assay type: ADME
[27] = Stability in rat plasma at 1 uM after 40 mins by LC-MS/MS analysis; assay type: ADME, cell-free; conditions: read-out: Stability
[28] = Drug uptake in Wistar rat kidney at 6 mg/kg, iv measured after 0.5 hrs; assay type: ADME, organism-based; conditions: in vivo
[29] = Drug uptake in Wistar rat heart at 6 mg/kg, iv measured after 8 hrs; assay type: ADME, organism-based; conditions: in vivo
[30] = Stability in rat liver microsomes at 50 uM after 210 mins in presence of NADPH by LC-MS/MS analysis; assay type: ADME, microsome; conditions: liver microsomes, read-out: Stability
[31] = Stability in rat liver microsomes at 50 uM after 40 mins in presence of NADPH by LC-MS/MS analysis; assay type: ADME, microsome; conditions: read-out: Stability
[32] = Drug uptake in Wistar rat spleen at 6 mg/kg, iv measured after 12 hrs; assay type: ADME, organism-based; conditions: in vivo
NCI-H460 [33] = experiment: Antitumor activity against human NCI-H460 cells xenografted in nude mouse assessed as inhibition of tumor weight at 9 mg/kg, iv administered once in every 2 days for 14 consecutive days relative to control; assay type: functional; conditions: 48 h
NCI-H460 [34] = experiment: Antitumor activity against human NCI-H460 cells xenografted in nude mouse assessed as inhibition of tumor volume at 3 mg/kg, iv administered once in every 2 days for 14 consecutive days cotreated with 25 mg/kg gefitinib once daily for 14 consecutive days relative to control; assay type: functional
[35] = Drug uptake in Wistar rat lungs at 6 mg/kg, iv measured after 0.5 hrs; assay type: ADME, organism-based, Lung; conditions: in vivo
[36] = AUClast in Wistar rat at 4 mg/kg, iv; assay type: ADME, organism-based; set-up: dose 4 mg/kg, route intravenous, time 0 - last; conditions: in vivo
[37] = Drug uptake in Wistar rat liver at 6 mg/kg, iv measured after 8 hrs; assay type: ADME, organism-based; conditions: in vivo
[38] = Stability in rat liver microsomes at 50 uM after 20 mins in presence of NADPH by LC-MS/MS analysis; assay type: ADME, microsome; conditions: read-out: Stability
[39] = Drug uptake in Wistar rat kidney at 6 mg/kg, iv measured after 4 hrs; assay type: ADME, organism-based; conditions: in vivo
[40] = AUC (0 to infinity) in Wistar rat at 4 mg/kg, iv; assay type: ADME, organism-based; set-up: dose 4 mg/kg, time infinity, route intravenous; conditions: in vivo
Cytochrome P450 2D6 = Cytochrome P450 2D6 (Homo sapiens, UniProt P10635); experiment: Inhibition of CYP2D6 in human liver microsomes preincubated for 10 mins followed by NADPH addition measured after 10 mins by LC-MS/MS analysis; assay type: ADME
[41] = Drug uptake in Wistar rat heart at 6 mg/kg, iv measured after 0.5 hrs; assay type: ADME, organism-based; conditions: in vivo
[42] = Drug uptake in Wistar rat heart at 6 mg/kg, iv measured after 1 hr; assay type: ADME, organism-based; conditions: in vivo
NCI-H460 [43] = experiment: Antitumor activity against human NCI-H460 cells xenografted in nude mouse assessed as inhibition of tumor weight at 6 mg/kg, iv administered once in every 2 days for 14 consecutive days relative to control; assay type: functional; conditions: 48 h
[44] = Drug excretion in Wistar rat feces at 4 mg/kg, iv measured after 4 hrs; assay type: ADME, organism-based; conditions: faeces, read-out: Drug excretion
NCI-H460 [45] = experiment: Antitumor activity against human NCI-H460 cells xenografted in nude mouse assessed as inhibition of tumor weight at 3 mg/kg, iv administered once in every 2 days for 14 consecutive days relative to control; assay type: functional; conditions: 48 h
[46] = Drug uptake in Wistar rat spleen at 6 mg/kg, iv measured after 8 hrs; assay type: ADME, organism-based; conditions: in vivo
[47] = Apparent volume of distribution in Wistar rat at 8 mg/kg, iv; assay type: ADME, organism-based; conditions: in vivo, read-out: Vz
[48] = Drug uptake in Wistar rat lungs at 6 mg/kg, iv measured after 4 hrs; assay type: ADME, organism-based, Lung; conditions: in vivo
Rattus norvegicus = experiment: Clearance in Wistar rat at 8 mg/kg, iv; assay type: ADME, organism-based; conditions: in vivo

Sequence of Cytochrome P450 2D6 (P10635 whole entry): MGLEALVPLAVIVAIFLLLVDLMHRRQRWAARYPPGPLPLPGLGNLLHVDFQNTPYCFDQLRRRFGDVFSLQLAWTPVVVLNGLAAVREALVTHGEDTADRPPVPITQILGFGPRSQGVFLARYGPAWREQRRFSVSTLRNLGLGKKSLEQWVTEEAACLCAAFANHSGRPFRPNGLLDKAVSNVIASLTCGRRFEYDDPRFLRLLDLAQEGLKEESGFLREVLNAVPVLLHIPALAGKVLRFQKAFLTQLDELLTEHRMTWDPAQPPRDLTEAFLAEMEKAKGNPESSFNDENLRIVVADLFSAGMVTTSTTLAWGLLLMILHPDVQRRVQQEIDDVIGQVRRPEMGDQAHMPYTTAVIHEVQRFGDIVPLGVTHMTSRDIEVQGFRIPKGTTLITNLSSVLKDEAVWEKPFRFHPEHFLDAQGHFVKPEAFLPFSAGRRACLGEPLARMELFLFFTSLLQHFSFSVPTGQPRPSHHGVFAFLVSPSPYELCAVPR
Sequence of Cytochrome P450 2C9 (P11712 whole entry): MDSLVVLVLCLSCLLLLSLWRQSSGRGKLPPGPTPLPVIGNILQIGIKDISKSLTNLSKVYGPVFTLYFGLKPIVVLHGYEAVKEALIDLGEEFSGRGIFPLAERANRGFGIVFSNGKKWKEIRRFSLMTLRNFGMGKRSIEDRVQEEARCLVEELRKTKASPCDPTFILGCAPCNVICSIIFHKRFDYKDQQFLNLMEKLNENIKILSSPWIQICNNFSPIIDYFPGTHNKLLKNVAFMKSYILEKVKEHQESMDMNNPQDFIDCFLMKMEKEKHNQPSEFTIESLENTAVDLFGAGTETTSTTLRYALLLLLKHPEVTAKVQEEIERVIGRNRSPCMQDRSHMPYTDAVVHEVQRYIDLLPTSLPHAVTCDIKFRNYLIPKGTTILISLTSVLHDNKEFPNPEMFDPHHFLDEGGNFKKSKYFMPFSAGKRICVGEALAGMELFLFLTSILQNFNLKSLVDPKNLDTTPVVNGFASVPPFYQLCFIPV

SMILES: [2H]/C(c1nc[nH]c1C(C)(C)C)=c1/[nH]c(=O)/c(=C/c2ccccc2)[nH]c1=O
- dose excreted at 24 h [1]: 0.2%
- dose excreted at 108 h [2]: 6.83%
- inhibition in vivo at 6 mg/kg (NCI-H460 [3]): 56.9%
- clearance [4]: 71.4 mL/min/kg
- half-life [5]: 2.29 h
- MRT last [6]: 0.96 h
- dose excreted at 8 h [7]: 0.13%
- Drug uptake [8]: 359 ng/mL/g
- dose excreted at 108 h [9]: 0.67%
- MRT last [10]: 1.76 h
- Drug uptake [11]: 567.3 ng/mL/g
- dose excreted at 12 h [12]: 0.14%
- fraction unbound at 4 h, 2 µM [13]: 0.027
- remaining at 2.5 h, 50 µM [14]: 32.9%
- remaining at 10 min, 50 µM [15]: 80.6%
- Drug uptake [16]: 1756.2 ng/mL/g
- remaining at 1 h, 50 µM [17]: 47.1%
- Drug uptake [18]: 7096.2 ng/mL/g
- remaining at 1.5 h, 1 µM [19]: 99.3%
- Activity (Mus musculus): Toxic
- inhibition (INH) (NCI-H460 [20]): 60.5%
- half-life [21]: 2.27 h
- dose excreted at 8 h [22]: 0.11%
- Drug uptake [23]: 1421.7 ng/mL/g
- remaining at 1.5 h, 50 µM [24]: 39.9%
- dose excreted at 2 h [25]: 0%
- remaining at 5 min, 50 µM [26]: 84.8%
- IC50 (Cytochrome P450 2C9): 0.56 µM
- remaining at 40 min, 1 µM [27]: 95.5%
- Drug uptake [28]: 7423.8 ng/mL/g
- Drug uptake [29]: 88 ng/mL/g
- remaining at 3.5 h, 50 µM [30]: 31.5%
- remaining at 40 min, 50 µM [31]: 56.5%
- Drug uptake [32]: 287.3 ng/mL/g
- inhibition in vivo at 9 mg/kg (NCI-H460 [33]): 58.7%
- inhibition (INH) (NCI-H460 [34]): 57.6%
- Drug uptake [35]: 13471.1 ng/mL/g
- AUC(0-t) [36]: 1330 ng·h/mL
- Drug uptake [37]: 1684.3 ng/mL/g
- remaining at 20 min, 50 µM [38]: 74.8%
- Drug uptake [39]: 3570.8 ng/mL/g
- AUC(0-inf) [40]: 1330 ng·h/mL
- IC50 (Cytochrome P450 2D6): 18.4 µM
- Drug uptake [41]: 2189.8 ng/mL/g
- Drug uptake [42]: 3836.3 ng/mL/g
- inhibition in vivo at 6 mg/kg (NCI-H460 [43]): 49.5%
- dose excreted at 4 h [44]: 0.11%
- inhibition in vivo at 3 mg/kg (NCI-H460 [45]): 43%
- Drug uptake [46]: 773.1 ng/mL/g
- Vd [47]: 16.2 L/kg
- Drug uptake [48]: 49038.9 ng/mL/g
- CL (Rattus norvegicus): 64.617 mL/min/kg
